From the supplement of paper PMC8671470
± gives the standard deviation of the averaged measurements.

Experiments:
Details in all cases: 72 h
K-562 = assay: cell viability (% survival relative to DMSO control, bortezomib = 0%); higher = less cytotoxic
Procedure, shortened: (§1)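 Reported values are percent survival from duplicate wells, averaged. Fifteen myeloid leukaemia cell lines were treated in 384-well plates with compounds at 1, 10, 100, 1000 or 10000 nM for 72 h at 37 °C in 5% CO2. Signals from CellTiter-Glo luminescence were scaled with vehicle as 100% and a 10 µM positive control as 0%.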

Mono-Mac-6 = assay: as above
Procedure, shortened: as §1

KU-812 = assay: as above
Procedure, shortened: as §1

BV-173 = assay: as above
Procedure, shortened: as §1

KCL-22 = assay: as above
Procedure, shortened: as §1

MV4-11 = assay: as above
Procedure, shortened: as §1

ML-2 = assay: as above
Procedure, shortened: as §1

KG-1 = assay: as above
Procedure, shortened: as §1

THP-1 = assay: as above
Procedure, shortened: as §1

LAMA-84 = assay: as above
Procedure, shortened: as §1

HL-60 [1] = assay: as above
Procedure, shortened: as §1

MOLM-13 = assay: as above
Procedure, shortened: as §1

NOMO-1 [2] = assay: as above
Procedure, shortened: as §1

HEL = assay: as above
Procedure, shortened: as §1

SHI-1 = assay: as above
Procedure, shortened: as §1

HL-60 [3] = assay: area under dose-response curve (viability, 1 nM-10 uM) (fraction (0-1)); higher = more sensitive
Procedure, shortened: (§2)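 Area under the curve, where listed, was derived from four-parameter log-logistic fits with drc and PharmacoGx. These fits used CellTiter-Glo viability from HL-60 cells in RPMI 1640 with 10% FBS, normalised to DMSO wells and wells holding 10 μM proteasome inhibitor. The full library was rescreened on 384-well plates in duplicate at five tenfold concentrations, 1–10,000 nM, with DMSO or 100 nM of one of three metabolic inhibitors, for 72 h at 37 °C, 5% CO2.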

NOMO-1 [4] = system: NOMO-1
Procedure, shortened: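 Each of fifteen myeloid leukaemia cell lines was seeded in RPMI 1640 at a density titrated to its linear growth range. The cells were incubated for 72 h at 37 °C and 5% CO2 with compounds at five tenfold doses from 1 to 10,000 nM, in duplicate. After ATP luminescence was normalised to vehicle and to a positive control at 10 µM, four-parameter log-logistic curves were fitted. These curves gave the IC50.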

HL-60 [5] = assay: cell viability (% survival relative to DMSO control); higher = less cytotoxic
Procedure, shortened: as §2

Oc1ncc(F)c(O)n1 [5-fluorouracil]
Details	area under dose-response curve, co-treatment: AZD3965 100 nM	area under dose-response curve, co-treatment: DMSO vehicle	area under dose-response curve, co-treatment: GSK2194069 100 nM	area under dose-response curve, co-treatment: pictilisib 100 nM	cell viability, 1 nM [%]	cell viability, 10 nM [%]	cell viability, 100 nM [%]	cell viability, 1000 nM [%]	cell viability, 10000 nM [%]
BV-173	–	–	–	–	99	110	85.6	86.4	16.3
HEL	–	–	–	–	95.1	104	84.2	73.8	31.8
HL-60 [1]	–	–	–	–	113	120	138	61.2	27.1
HL-60 [3]	< 0.0301	< 0.0301	< 0.0301	< 0.0301	–	–	–	–	–
K-562	–	–	–	–	101	114	91.5	108	68.9
KCL-22	–	–	–	–	98.9	120	98.3	84.3	30.6
KG-1	–	–	–	–	101	114	85.8	83.5	46.2
KU-812	–	–	–	–	97.6	100	88.4	88	66.6
LAMA-84	–	–	–	–	91.1	98.5	99.8	86.9	48.8
ML-2	–	–	–	–	93	99.4	102	78.9	29.5
MOLM-13	–	–	–	–	128	109	82.2	22.4	2.01
MV4-11	–	–	–	–	96	111	85	26.3	1.31
Mono-Mac-6	–	–	–	–	95.4	95.5	88.4	47.9	19.3
NOMO-1 [2]	–	–	–	–	92.2	105	95.1	68.5	61.9
SHI-1	–	–	–	–	91.6	110	102	70.9	44.6
THP-1	–	–	–	–	101	111	99.3	97.8	63.3

Details	IC50 (cell viability) [µM]
NOMO-1 [4]	9.6

cell viability [%], HL-60 [5]
Details	0.001 µM	0.01 µM	0.1 µM	1 µM	10 µM
co-treatment: AZD3965 100 nM	97.8 ± 1.2	98.3 ± 0.43	102 ± 8.5	102.9 ± 0.25	55 ± 2.8
co-treatment: DMSO vehicle	101.99 ± 0.046	97.89 ± 0.79	98.8 ± 2.7	102 ± 3	76.1 ± 2.4
co-treatment: GSK2194069 100 nM	99.6 ± 4.6	104 ± 4.3	99 ± 12	100 ± 5.7	75.9 ± 2.7
co-treatment: pictilisib 100 nM	102 ± 3.1	75.9 ± 36	113 ± 31	96.5 ± 4.7	68.7 ± 1.1

CC1Cc2ccccc2N1NC(=O)c1ccc(Cl)c(S(N)(=O)=O)c1 (stereo not given) [Indapamide]
Details	area under dose-response curve, co-treatment: AZD3965 100 nM	area under dose-response curve, co-treatment: DMSO vehicle	area under dose-response curve, co-treatment: GSK2194069 100 nM	area under dose-response curve, co-treatment: pictilisib 100 nM	cell viability, 1 nM [%]	cell viability, 10 nM [%]	cell viability, 100 nM [%]	cell viability, 1000 nM [%]	cell viability, 10000 nM [%]
BV-173	–	–	–	–	116	93.9	95.3	99.7	91.9
HEL	–	–	–	–	107	112	101	105	103
HL-60 [1]	–	–	–	–	87.7	95	81.6	93	102
HL-60 [3]	< 0.0301	< 0.0301	< 0.0301	< 0.0301	–	–	–	–	–
K-562	–	–	–	–	112	97.3	120	100	102
KCL-22	–	–	–	–	89.3	105	77.6	102	105
KG-1	–	–	–	–	86.7	105	101	97.3	101
KU-812	–	–	–	–	89.8	111	95.8	104	89.7
LAMA-84	–	–	–	–	92.2	111	98.1	94.3	91.3
ML-2	–	–	–	–	94.1	98.2	97.5	93.8	100
MOLM-13	–	–	–	–	100	93.3	96.5	100	86.1
MV4-11	–	–	–	–	111	98.4	102	97.8	99.4
Mono-Mac-6	–	–	–	–	99.6	112	112	110	90.9
NOMO-1 [2]	–	–	–	–	98.2	103	101	101	102
SHI-1	–	–	–	–	92.5	93.8	113	102	98
THP-1	–	–	–	–	93.5	105	93.2	95.4	97

Details	IC50 (cell viability) [µM]
NOMO-1 [4]	> 10

cell viability [%], HL-60 [5]
Details	0.001 µM	0.01 µM	0.1 µM	1 µM	10 µM
co-treatment: AZD3965 100 nM	103 ± 4.1	104 ± 2	99.4 ± 5.3	103.1 ± 0.94	95.9 ± 1.7
co-treatment: DMSO vehicle	98.1 ± 3.9	104 ± 4.2	101 ± 1.1	99.5 ± 3.2	103.2 ± 0.48
co-treatment: GSK2194069 100 nM	103.4 ± 0.98	107.5 ± 0.58	94.7 ± 4.5	98.3 ± 8.1	99.6 ± 4.5
co-treatment: pictilisib 100 nM	100 ± 10	112 ± 10	97.14 ± 0.93	92.8 ± 8.5	98.4 ± 2.1

CC(C)(CS(=O)(=O)[O-])NC(=O)CC[N+](C)(C)CCO
Details	area under dose-response curve, co-treatment: AZD3965 100 nM	area under dose-response curve, co-treatment: DMSO vehicle	area under dose-response curve, co-treatment: GSK2194069 100 nM	area under dose-response curve, co-treatment: pictilisib 100 nM	cell viability, 1 nM [%]	cell viability, 10 nM [%]	cell viability, 100 nM [%]	cell viability, 1000 nM [%]	cell viability, 10000 nM [%]
BV-173	–	–	–	–	88.4	97.7	91.6	91.3	113
HEL	–	–	–	–	101	106	93.8	98.8	104
HL-60 [1]	–	–	–	–	116	118	97.8	78.4	97.8
HL-60 [3]	< 0.0301	< 0.0301	< 0.0301	< 0.0301	–	–	–	–	–
K-562	–	–	–	–	108	88.5	105	97.8	105
KCL-22	–	–	–	–	107	103	94.1	88.8	117
KG-1	–	–	–	–	97.4	114	93.6	94.4	118
KU-812	–	–	–	–	99.7	98.6	99.3	89.4	107
LAMA-84	–	–	–	–	88.8	96.6	100	91.3	106
ML-2	–	–	–	–	95.4	109	89.4	88.9	115
MOLM-13	–	–	–	–	121	112	97.2	82.3	117
MV4-11	–	–	–	–	104	101	99.8	95.6	114
Mono-Mac-6	–	–	–	–	86.8	105	90.1	91.6	105
NOMO-1 [2]	–	–	–	–	94.8	102	96	94.3	101
SHI-1	–	–	–	–	107	115	96.8	91.8	126
THP-1	–	–	–	–	101	102	99.5	93.2	120

Details	IC50 (cell viability) [µM]
NOMO-1 [4]	> 10

cell viability [%], HL-60 [5]
Details	0.001 µM	0.01 µM	0.1 µM	1 µM	10 µM
co-treatment: AZD3965 100 nM	101 ± 5.7	89.5 ± 25	116 ± 26	122 ± 30	94.1 ± 3.8
co-treatment: DMSO vehicle	95.9 ± 6.8	98.4 ± 11	107.3 ± 0.43	106 ± 3.5	100 ± 1.9
co-treatment: GSK2194069 100 nM	105 ± 11	95.2 ± 10	102 ± 1.7	111 ± 12	99.7 ± 2.9
co-treatment: pictilisib 100 nM	102 ± 6.8	79.9 ± 30	107 ± 5	115 ± 23	99.9 ± 7.4
